The source of these data is publication PMC9462843 (Protein Science : A Publication of the Protein Society, 2022).

What all share (format): biochemical
Assay [1] addresses T1, EcIMPDH (Escherichia coli IMPDH) (Escherichia coli, UniProt P0ADG7).
T1 construct: Open reading frames of the different enzymes were amplified by PCR using genomic DNA as template; 8xHis (N, cleaved yes); made in house; host or cells: E. coli BL21 (DE3)
The assay can be described thus: IMPDH activity assay, guanine nucleotide titration (NADH fluorescence). Conditions: for effect on the catalytic activity in vitro: nucleotide alone (no ATP); for effect in vitro on the activity: even at millimolar concentrations, in presence or absence of ATP. The protocol:
(§1) IMPDH activity was assayed using 384‐well microtiter plates by monitoring the appearance of NADH by fluorescence (λ exc = 340 nm and λ em = 460 nm, using a 10 nm slit window for both excitation and emission).
(§2) The total amount of MgCl2 was adjusted for each nucleotide concentration to keep 1 mM free Mg^2+ constant concentration, as previously described.[6] The experimental data were fitted to the Michaelis–Menten and allosteric sigmoidal equations using GraphPad Prism (GraphPad Software).

For assay [2], the target named is T2, PaIMPDH (Pseudomonas aeruginosa IMPDH) (Pseudomonas aeruginosa, UniProt Q9HXM5).
T2 construct: Open reading frames of the different enzymes were amplified by PCR using genomic DNA as template; 8xHis (N, cleaved yes); made in house; host or cells: E. coli BL21 (DE3)
T2 sequence (Q9HXM5 1-489): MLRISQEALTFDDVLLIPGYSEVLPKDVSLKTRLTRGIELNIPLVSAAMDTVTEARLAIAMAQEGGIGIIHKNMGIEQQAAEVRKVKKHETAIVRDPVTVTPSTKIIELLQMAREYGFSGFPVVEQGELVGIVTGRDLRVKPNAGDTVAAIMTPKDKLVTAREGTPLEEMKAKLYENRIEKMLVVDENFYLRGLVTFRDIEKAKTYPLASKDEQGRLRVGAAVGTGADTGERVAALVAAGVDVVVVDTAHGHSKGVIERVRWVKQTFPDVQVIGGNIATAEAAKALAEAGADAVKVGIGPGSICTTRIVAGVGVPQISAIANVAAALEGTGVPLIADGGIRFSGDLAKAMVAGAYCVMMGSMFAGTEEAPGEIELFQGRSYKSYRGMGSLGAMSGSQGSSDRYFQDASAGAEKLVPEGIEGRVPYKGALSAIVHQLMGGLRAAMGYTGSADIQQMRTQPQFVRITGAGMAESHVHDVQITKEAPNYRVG
The description is as above. As to conditions: for effect on the catalytic activity in vitro: nucleotide alone (no ATP); for effect in vitro on the activity: even at millimolar concentrations, in presence or absence of ATP. The method, then: as §1, §2

The target of assay [3] is StcIMPDH (Streptomyces coelicolor IMPDH) (Streptomyces coelicolor, UniProt Q9L0I7). Described as above. As to conditions: for K i,app: 0.25 mM ATP present; for effect on the catalytic activity in vitro: nucleotide alone (no ATP). The protocol: as §1, §2
Assay [4] has as its target T3, BsIMPDH (Bacillus subtilis IMPDH) (Bacillus subtilis, UniProt P21879).
T3 construct: Open reading frames of the different enzymes were amplified by PCR using genomic DNA as template; 8xHis (N, cleaved yes); made in house; host or cells: E. coli BL21 (DE3)
Described as above. As to conditions: for K i,app: 0.25 mM ATP present; for effect on the catalytic activity in vitro: nucleotide alone (no ATP); for IC50: read-out: Estimated IC50. The protocol:
as §1, §2

For a further assay, the target named is T4, PaIMPDH (Pseudomonas aeruginosa, UniProt Q9HXM5).
T4 construct: Open reading frames of the different enzymes were amplified by PCR using genomic DNA as template; 8xHis (N, cleaved yes); made in house; host or cells: E. coli BL21 (DE3)
Kind of assay: GTP titration curves at physiological ATP concentration (Km shift). As to conditions: read-out: GTP concentration required to duplicate the Km value, constant 3 mM ATP, 0.5 mM NAD, 32°C. The method, then:
as §1
(§3) 32 °C in buffer 100 mM Tr i s-HCl,pH8.0,100 mM KCl, 1 mM DTT, 1 mM free MgCl2, […]

The next assay deals with T5, EcIMPDH (Escherichia coli, UniProt P0ADG7).
T5 construct: Open reading frames of the different enzymes were amplified by PCR using genomic DNA as template; 8xHis (N, cleaved yes); made in house; host or cells: E. coli BL21 (DE3)
The description is as above. As to conditions: read-out: GTP concentration needed to duplicate the Km value, constant 3 mM ATP, 0.5 mM NAD, 32°C. The method, then: as §1, §3

Assay [5] deals with T6, Helicobacter pylori IMPDH (HpIMPDH) (Helicobacter pylori, UniProt P56088).
T6 construct: Open reading frames of the different enzymes were amplified by PCR using genomic DNA as template; 8xHis (N, cleaved yes); made in house; host or cells: E. coli BL21 (DE3)
T6 sequence (P56088 1-481): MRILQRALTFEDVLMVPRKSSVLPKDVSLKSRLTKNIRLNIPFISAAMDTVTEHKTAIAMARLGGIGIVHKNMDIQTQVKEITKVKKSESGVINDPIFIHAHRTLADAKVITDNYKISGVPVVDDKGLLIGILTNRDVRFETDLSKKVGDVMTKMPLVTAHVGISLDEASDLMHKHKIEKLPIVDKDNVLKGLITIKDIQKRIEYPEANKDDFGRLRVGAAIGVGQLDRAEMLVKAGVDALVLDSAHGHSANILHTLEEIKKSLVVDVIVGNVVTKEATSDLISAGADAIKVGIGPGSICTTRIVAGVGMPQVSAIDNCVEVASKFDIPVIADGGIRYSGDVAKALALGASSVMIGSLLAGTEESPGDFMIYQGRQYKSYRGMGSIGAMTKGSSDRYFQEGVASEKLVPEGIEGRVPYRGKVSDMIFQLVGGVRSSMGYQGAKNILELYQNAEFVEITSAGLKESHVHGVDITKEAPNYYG
The assay can be described thus: Effects of guanine nucleotides on the catalytic activity of HpIMPDH in vitro. As to conditions: 0.25 mM ATP + 0.5 mM (p)ppGpp, 32°C (Figure S12). The protocol:
as §1
Supplemental Figure 12. Effects of guanine nucleotides on the catalytic activity of HpIMPDH in vitro.Normalized initialvelocity (V0) values calculated as the V0 in the absence of nucleotides divided by the corresponding values inthe presence of the indicated ones. The experiment was performed at 32 °C in buffer 100 mM Tr i s-HCl, pH 8.0, 100 mM KCl, 1 mM DTT, 1 mM free MgCl2, 50 nM enzyme, 0.5 mM NAD+ […]
Nucleotide concentrations were (from left to right): 0.5 mM
The Vo value used for normalization was 6.83 ± 0.1 nM/sec.
(1 picture or pasted object on this page, not shown here)

T3 sequence (P21879 whole entry): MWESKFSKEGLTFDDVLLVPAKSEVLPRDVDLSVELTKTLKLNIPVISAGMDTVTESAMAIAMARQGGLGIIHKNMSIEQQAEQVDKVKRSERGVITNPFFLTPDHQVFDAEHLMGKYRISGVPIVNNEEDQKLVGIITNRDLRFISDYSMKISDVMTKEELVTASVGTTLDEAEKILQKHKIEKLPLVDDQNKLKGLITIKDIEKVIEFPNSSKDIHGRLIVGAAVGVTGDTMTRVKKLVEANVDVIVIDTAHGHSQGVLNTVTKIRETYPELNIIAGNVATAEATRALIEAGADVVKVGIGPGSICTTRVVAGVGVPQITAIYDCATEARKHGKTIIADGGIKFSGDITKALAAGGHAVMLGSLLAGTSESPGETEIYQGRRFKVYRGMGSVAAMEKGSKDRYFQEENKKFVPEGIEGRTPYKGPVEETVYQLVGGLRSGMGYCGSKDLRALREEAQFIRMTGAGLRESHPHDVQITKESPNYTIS
T1 sequence (P0ADG7 whole entry): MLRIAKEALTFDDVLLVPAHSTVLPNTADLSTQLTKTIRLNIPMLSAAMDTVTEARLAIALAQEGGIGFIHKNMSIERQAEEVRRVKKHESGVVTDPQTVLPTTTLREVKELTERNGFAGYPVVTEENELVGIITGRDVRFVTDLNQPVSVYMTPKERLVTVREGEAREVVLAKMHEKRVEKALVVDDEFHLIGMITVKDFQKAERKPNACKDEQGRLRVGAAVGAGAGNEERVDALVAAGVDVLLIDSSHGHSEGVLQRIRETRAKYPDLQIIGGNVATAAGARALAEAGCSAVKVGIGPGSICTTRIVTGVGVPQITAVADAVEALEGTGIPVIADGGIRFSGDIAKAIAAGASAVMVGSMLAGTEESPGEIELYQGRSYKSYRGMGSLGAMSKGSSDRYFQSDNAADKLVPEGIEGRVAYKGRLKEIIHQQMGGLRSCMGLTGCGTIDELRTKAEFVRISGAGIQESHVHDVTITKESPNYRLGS
Sequence of StcIMPDH (Streptomyces coelicolor IMPDH) (Q9L0I7 entry or part of it): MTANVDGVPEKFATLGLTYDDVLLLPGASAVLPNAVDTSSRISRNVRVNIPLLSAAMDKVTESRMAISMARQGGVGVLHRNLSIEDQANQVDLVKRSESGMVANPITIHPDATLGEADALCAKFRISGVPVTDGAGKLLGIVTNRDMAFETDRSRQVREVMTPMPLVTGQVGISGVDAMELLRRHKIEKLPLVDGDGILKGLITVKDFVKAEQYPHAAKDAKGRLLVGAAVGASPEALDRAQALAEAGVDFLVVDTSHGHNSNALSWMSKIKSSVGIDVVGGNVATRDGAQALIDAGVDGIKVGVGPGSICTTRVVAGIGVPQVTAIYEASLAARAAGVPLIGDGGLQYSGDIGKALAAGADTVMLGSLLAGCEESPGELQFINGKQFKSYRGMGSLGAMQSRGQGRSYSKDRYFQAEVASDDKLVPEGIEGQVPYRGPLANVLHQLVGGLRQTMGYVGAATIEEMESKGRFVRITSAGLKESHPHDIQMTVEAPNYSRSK
T5 sequence (P0ADG7 whole entry): as the sequence (P0ADG7 whole entry) above

Regarding `Nc1nc2c(ncn2[C@@H]2O[C@H](COP(=O)(O)OP(=O)(O)O)[C@@H](O)[C@H]2O)c(=O)[nH]1` [GDP], the “K i,app” value in assay [1] (0.25 mM ATP present) is “mid‐micromolar range”; in assay [2] (0.25 mM ATP present) it was “mid‐micromolar range”; in assay [3] (StcIMPDH), “millimolar range”; in assay [4] (BsIMPDH), “millimolar range”. In addition, the “effect on the catalytic activity in vitro” value in assay [1], in assay [2], in assay [3] (StcIMPDH) and in assay [4] (BsIMPDH) was “did not have a significant effect” in each case.
Turning to `Nc1nc2c(ncn2[C@@H]2O[C@H](COP(=O)(O)OP(=O)(O)OP(=O)(O)O)[C@@H](O)[C@H]2O)c(=O)[nH]1` [GTP], the “effect on the catalytic activity in vitro” value in assay [1], in assay [2], in assay [3] (StcIMPDH) and in assay [4] (BsIMPDH) was “did not have a significant effect” throughout. Further, the “K i,app” value in assay [3] (StcIMPDH) and in assay [4] (BsIMPDH) was “millimolar range” each time. Further, the GTP concentration doubling Km on PaIMPDH came out at 800 µM; on EcIMPDH, 1300 µM.
In general, IC50 refers to the midpoint of a concentration-inhibition curve. For the molecule `Nc1nc2c(ncn2[C@@H]2O[C@H](COP(=O)(O)OP(=O)(O)O)[C@@H](OP(=O)(O)OP(=O)(O)O)[C@H]2O)c(=O)[nH]1` [ppGpp], the “effect in vitro on the activity” value in assay [1] and in assay [2] was “no detectable effect” in each case. The “effect on the catalytic activity in vitro” value in assay [1], in assay [2], in assay [3] (StcIMPDH) and in assay [4] (BsIMPDH) was “no significant effect” throughout. The IC50 in assay [3] was 2 ± 0.03 µM; in assay [4], 8.9 ± 0.4 µM. Moreover, the “inhibition of catalytic activity (potency range)” value in assay [3] (StcIMPDH, combined with ATP) is “low micromolar range”; in assay [4] (BsIMPDH, combined with ATP), “low micromolar range”.
Take `Nc1nc2c(ncn2[C@@H]2O[C@H](COP(=O)(O)OP(=O)(O)OP(=O)(O)O)[C@@H](OP(=O)(O)OP(=O)(O)O)[C@H]2O)c(=O)[nH]1` [pppGpp]: the “effect in vitro on the activity” value in assay [1] and in assay [2] was “no detectable effect” each time. In addition, the IC50 in assay [3] is 1.4 ± 0.03 µM; in assay [4] it was 11.4 ± 1.2 µM.
Consider (p)ppGpp, for which the “effect on catalytic activity of HpIMPDH” value in assay [5] is “allosteric inhibition”.
